Experimental data from PMC11272598, “RG7774 (Vicasinabin), an orally bioavailable cannabinoid receptor 2 (CB2R) agonist, decreases retinal vascular permeability, leukocyte adhesion, and ocular inflammation in animal models” (Frontiers in Pharmacology, 2024).

Experiments:
Assay in all cases: CEREP radioligand binding
AT1 (h) = AT1 (h) (Homo sapiens, UniProt P30556); conditions: radioligand [^125I]-[Sar^1,Ile^8]-AT-II
Source text: (§1) Supplement Table1.docx, table 3: Supplementary Table S3. RG7774 binding to non-CB1R/CB2R receptors, ion channels, transporters, and enzymes (CEREP, Celle l’Evescault, France; http://www.cerep.fr). | column: % inhibition of control SB (n = 2)

A2A (h) = A2A (h) (Homo sapiens, UniProt P29274); conditions: radioligand [^3H]-CGS 21680
Source text: as §1

GR (h) = GR (h) (Homo sapiens, UniProt P04150); conditions: radioligand [^3H]-dexamethasone
Sequence of GR (h) (P04150 whole entry): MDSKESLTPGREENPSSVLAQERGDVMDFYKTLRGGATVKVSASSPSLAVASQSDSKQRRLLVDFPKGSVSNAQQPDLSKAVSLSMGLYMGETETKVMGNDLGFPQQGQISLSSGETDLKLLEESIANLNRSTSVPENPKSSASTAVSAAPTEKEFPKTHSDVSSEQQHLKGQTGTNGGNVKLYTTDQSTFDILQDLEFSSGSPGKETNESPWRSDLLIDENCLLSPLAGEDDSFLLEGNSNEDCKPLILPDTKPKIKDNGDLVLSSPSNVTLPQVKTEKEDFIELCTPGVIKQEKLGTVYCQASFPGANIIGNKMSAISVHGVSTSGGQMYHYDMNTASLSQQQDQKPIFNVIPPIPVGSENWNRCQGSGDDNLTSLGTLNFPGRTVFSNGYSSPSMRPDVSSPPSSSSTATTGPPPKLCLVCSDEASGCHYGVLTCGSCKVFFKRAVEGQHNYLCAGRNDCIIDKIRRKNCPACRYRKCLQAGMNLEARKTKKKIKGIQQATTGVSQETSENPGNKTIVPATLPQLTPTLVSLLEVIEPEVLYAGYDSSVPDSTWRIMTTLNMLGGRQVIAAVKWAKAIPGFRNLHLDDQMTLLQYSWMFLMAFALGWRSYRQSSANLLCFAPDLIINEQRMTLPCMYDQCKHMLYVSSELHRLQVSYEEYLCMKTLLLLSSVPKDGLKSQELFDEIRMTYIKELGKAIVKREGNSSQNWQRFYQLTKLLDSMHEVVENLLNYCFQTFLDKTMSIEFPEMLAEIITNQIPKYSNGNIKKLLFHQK
Source text: as §1

κ(KOP) = κ(KOP) (Rattus norvegicus, UniProt P34975); conditions: radioligand [^3H]-U 69593
Source text: as §1

μ(MOP) (h) = μ(MOP) (h) (Homo sapiens, UniProt P35372); conditions: radioligand [^3H]-DAMGO
Source text: as §1

5-HT6 (h) = 5-HT6 (h) (Homo sapiens, UniProt P50406); conditions: radioligand [^3H]-LSD
Source text: as §1

5-HT3 (h) = 5-HT3 (h) (Homo sapiens, UniProt P46098); conditions: radioligand [^3H]-BRL 43694
Source text: as §1

Dopamine transporter (h) = Dopamine transporter (h) (Homo sapiens, UniProt Q01959); conditions: radioligand [^3H]-BTCP
Source text: as §1

H2 (h) = H2 (h) (Homo sapiens, UniProt P25021); conditions: radioligand [^125I]-APT
Source text: as §1

5-HT2A (h) = 5-HT2A (h) (Homo sapiens, UniProt P28223); conditions: radioligand [^3H]-ketanserin
Sequence of 5-HT2A (h) (P28223 whole entry): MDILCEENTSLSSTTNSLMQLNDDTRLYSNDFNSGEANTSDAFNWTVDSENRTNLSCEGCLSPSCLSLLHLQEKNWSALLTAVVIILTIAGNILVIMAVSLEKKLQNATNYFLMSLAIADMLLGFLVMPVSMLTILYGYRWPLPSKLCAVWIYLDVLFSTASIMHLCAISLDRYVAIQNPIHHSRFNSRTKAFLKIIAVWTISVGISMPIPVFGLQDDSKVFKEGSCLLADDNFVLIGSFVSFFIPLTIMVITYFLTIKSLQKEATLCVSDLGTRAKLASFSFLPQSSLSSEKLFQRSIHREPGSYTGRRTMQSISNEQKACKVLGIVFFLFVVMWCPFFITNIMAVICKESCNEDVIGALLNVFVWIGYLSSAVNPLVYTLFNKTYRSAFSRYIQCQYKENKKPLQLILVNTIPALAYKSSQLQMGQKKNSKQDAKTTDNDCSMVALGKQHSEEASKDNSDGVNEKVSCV
Source text: as §1

M1 (h) = M1 (h) (Homo sapiens, UniProt P11229); conditions: radioligand [^3H]-pirenzepine
Sequence of M1 (h) (P11229 whole entry): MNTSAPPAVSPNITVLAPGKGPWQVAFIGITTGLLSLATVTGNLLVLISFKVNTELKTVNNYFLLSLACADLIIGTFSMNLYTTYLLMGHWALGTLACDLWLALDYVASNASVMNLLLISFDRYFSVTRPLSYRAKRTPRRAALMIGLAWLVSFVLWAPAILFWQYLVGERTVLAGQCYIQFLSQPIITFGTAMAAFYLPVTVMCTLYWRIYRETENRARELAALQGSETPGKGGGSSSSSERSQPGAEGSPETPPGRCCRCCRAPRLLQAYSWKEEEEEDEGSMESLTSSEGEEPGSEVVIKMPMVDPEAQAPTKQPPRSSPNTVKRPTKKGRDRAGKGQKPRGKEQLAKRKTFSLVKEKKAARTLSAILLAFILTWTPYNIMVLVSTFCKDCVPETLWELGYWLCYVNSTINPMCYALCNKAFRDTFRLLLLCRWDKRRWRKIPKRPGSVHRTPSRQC
Source text: as §1

5-HT2C (h) = 5-HT2C (h) (Homo sapiens, UniProt P28335); conditions: radioligand [^3H]-mesulergine
Sequence of 5-HT2C (h) (P28335 33-458): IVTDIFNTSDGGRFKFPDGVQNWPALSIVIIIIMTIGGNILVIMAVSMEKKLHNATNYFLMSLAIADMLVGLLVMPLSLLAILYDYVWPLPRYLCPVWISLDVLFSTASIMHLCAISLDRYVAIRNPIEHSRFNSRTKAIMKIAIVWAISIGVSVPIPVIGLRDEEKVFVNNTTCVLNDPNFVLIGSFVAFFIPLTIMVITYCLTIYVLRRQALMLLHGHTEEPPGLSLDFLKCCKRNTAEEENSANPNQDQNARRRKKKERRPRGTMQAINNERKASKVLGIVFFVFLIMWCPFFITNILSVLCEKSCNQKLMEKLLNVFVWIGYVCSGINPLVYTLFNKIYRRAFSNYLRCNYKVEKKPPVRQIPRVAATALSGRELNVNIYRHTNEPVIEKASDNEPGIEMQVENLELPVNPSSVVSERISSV
Source text: as §1

5-HT transporter (h) = 5-HT transporter (h) (Homo sapiens, UniProt P31645); conditions: radioligand [^3H]-imipramine
Source text: as §1

KV channel = conditions: radioligand [^125I]-α-dendrotoxin
Source text: as §1

M2 (h) = M2 (h) (Homo sapiens, UniProt P08172); conditions: radioligand [^3H]-AF-DX 384
Source text: as §1

Y1 (h) = Y1 (h) (Homo sapiens, UniProt P25929); conditions: radioligand [^125I]-peptide YY
Source text: as §1

SKCa channel = conditions: radioligand [^125I]-apamin
Source text: as §1

VPAC1 (VIP1) (h) = VPAC1 (VIP1) (h) (Homo sapiens, UniProt P32241); conditions: radioligand [^125I]-VIP
Source text: as §1

D5 = D5 (Homo sapiens, UniProt P21918); conditions: radioligand [^3H]-SCH 23390
Source text: as §1

B2 (h) = B2 (h) (Homo sapiens, UniProt P30411); conditions: radioligand [^3H]-bradykinin
Sequence of B2 (h) (P30411 whole entry): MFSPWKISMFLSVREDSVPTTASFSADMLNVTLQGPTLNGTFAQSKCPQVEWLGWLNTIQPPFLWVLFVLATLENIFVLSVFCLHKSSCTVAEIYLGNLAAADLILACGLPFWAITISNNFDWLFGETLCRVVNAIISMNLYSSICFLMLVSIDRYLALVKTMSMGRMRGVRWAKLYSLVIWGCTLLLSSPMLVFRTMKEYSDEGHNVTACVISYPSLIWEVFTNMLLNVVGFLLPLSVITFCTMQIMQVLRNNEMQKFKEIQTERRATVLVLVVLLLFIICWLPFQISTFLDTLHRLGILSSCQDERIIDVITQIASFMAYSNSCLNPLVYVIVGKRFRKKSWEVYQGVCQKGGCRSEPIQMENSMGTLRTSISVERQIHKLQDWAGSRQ
Source text: as §1

[1] = target: Norepinephrine transporter (h) (Homo sapiens, UniProt P23975); conditions: radioligand [^3H]-nisoxetine
Source text: as §1

PDGF = conditions: radioligand [^125I]-PDGF BB
Source text: as §1

D4.4 (h) = D4.4 (h) (Homo sapiens, UniProt P21917); conditions: radioligand [^3H]-methyl-spiperone
Source text: as §1

5-HT7 (h) = 5-HT7 (h) (Homo sapiens, UniProt P34969); conditions: radioligand [^3H]-LSD
Source text: as §1

BZD (peripheral) = BZD (peripheral) (Rattus norvegicus, UniProt P16257); conditions: radioligand [^3H]-PK 11195
Source text: as §1

[2] = tested on: Ca2+ channel (L, verapamil site) (phenylalkylamine); conditions: radioligand [^3H]-D888
Source text: as §1

5-HT1A (h) = 5-HT1A (h) (Homo sapiens, UniProt P08908); conditions: radioligand [^3H]-8-OH-DPAT
Source text: as §1

5-HT2B (h) = 5-HT2B (h) (Homo sapiens, UniProt P41595); conditions: radioligand [^125I](±)DOI
Sequence of 5-HT2B (h) (P41595 whole entry): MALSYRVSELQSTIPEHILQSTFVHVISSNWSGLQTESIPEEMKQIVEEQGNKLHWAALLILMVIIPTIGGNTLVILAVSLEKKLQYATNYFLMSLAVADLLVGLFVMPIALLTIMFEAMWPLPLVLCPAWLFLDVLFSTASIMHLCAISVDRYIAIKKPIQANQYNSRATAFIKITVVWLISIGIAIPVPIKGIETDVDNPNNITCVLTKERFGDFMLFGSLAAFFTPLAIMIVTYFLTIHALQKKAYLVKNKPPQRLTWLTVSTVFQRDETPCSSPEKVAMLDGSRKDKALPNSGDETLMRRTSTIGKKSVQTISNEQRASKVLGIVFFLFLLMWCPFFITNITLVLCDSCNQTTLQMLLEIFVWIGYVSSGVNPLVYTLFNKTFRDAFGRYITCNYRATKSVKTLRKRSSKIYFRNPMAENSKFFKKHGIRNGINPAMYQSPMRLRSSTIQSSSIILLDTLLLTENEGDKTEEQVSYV
Source text: as §1

TNF-α = conditions: radioligand [^125I]-TNF-α
Source text: as §1

EP4 (h) = EP4 (h) (Homo sapiens, UniProt P35408); conditions: radioligand [^3H]-PGE2
Source text: as §1

MT1 (ML1A) (h) = MT1 (ML1A) (h) (Homo sapiens, UniProt P48039); conditions: radioligand [^125I]-2-iodomelatonin
Sequence of MT1 (ML1A) (h) (P48039 whole entry): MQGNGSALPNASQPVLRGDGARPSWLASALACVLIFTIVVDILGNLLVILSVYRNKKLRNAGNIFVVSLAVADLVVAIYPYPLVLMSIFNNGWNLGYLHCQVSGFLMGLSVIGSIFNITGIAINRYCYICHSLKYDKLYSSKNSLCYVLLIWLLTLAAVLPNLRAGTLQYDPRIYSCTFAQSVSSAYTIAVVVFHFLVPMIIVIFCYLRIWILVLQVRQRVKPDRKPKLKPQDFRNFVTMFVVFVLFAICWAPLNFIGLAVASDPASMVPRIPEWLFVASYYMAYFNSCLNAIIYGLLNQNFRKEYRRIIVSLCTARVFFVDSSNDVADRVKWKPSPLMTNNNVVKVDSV
Source text: as §1

M5 (h) = M5 (h) (Homo sapiens, UniProt P08912); conditions: radioligand [^3H]-4-DAMP
Sequence of M5 (h) (P08912 whole entry): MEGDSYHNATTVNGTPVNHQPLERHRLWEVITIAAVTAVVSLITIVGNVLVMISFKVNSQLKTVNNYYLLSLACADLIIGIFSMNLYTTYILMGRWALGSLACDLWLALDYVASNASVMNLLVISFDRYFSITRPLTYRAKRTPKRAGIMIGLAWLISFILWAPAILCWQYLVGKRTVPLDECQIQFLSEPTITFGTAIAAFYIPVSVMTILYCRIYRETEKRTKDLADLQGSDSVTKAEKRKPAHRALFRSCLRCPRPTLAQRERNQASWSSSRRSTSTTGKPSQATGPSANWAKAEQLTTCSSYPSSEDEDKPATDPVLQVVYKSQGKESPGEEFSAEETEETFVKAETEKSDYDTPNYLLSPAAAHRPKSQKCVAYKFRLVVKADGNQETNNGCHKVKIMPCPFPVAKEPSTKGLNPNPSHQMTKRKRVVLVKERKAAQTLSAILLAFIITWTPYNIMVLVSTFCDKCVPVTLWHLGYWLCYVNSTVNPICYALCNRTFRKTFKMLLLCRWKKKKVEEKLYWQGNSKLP
Source text: as §1

BB (non-selective) = conditions: radioligand [^125I]-[Tyr^4]bombesin
Source text: as §1

EP2 (h) = EP2 (h) (Homo sapiens, UniProt P43116); conditions: radioligand [^3H]-PGE2
Source text: as §1

ETA (h) = ETA (h) (Homo sapiens, UniProt P25101); conditions: radioligand [^125I]-endothelin-1
Sequence of ETA (h) (P25101 21-427): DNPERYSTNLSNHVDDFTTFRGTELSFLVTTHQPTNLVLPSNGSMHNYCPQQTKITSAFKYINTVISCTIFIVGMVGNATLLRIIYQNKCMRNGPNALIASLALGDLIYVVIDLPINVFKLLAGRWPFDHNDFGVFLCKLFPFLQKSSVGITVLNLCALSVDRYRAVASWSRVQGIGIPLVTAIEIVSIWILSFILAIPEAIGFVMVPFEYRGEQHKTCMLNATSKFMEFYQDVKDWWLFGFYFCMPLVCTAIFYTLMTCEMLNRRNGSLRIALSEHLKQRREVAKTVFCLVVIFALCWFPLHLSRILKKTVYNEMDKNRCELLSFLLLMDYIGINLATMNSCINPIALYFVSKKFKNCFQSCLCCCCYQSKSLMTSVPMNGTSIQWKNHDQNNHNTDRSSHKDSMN
Source text: as §1

D1 (h) = D1 (h) (Homo sapiens, UniProt P21728); conditions: radioligand [^3H]-SCH 23390
Source text: as §1

CGRP (h) = CGRP (h) (Homo sapiens, UniProt O60894+Q16602); conditions: radioligand [^125I]-hCGRPα
Source text: as §1

Sequence of AT1 (h) (P30556 whole entry): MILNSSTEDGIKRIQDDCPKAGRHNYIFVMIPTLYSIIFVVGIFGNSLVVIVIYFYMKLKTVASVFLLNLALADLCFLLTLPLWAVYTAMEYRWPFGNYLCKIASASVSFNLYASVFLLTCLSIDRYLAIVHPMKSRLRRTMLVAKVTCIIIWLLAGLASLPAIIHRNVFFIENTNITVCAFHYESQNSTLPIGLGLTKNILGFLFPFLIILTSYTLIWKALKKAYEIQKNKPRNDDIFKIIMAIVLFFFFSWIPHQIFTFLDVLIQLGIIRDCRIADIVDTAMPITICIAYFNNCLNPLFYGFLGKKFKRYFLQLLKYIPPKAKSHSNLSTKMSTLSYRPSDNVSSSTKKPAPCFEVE

Which results are given for `Cn1nnnc1Cn1nnc2c(N3CC[C@H](O)C3)nc(C(C)(C)C)nc21` [RG7774, (S)-1-(5-tert-butyl-3-[(1-methyl-1H-tetrazol-5-yl)methyl]-3H-[1,2,3]triazolo[4,5-d]pyrimidin-7-yl)pyrrolidin-3-ol]?
% inhibition of control SB (n = 2) (AT1 (h)): –5.6%; % inhibition of control SB (n = 2) (A2A (h)): 12.4%; % inhibition of control SB (n = 2) (GR (h)): 3.0%; % inhibition of control SB (n = 2) (κ(KOP)): –12.7%; % inhibition of control SB (n = 2) (μ(MOP) (h)): –2.5%; % inhibition of control SB (n = 2) (5-HT6 (h)): 3.5%; % inhibition of control SB (n = 2) (5-HT3 (h)): 1.4%; % inhibition of control SB (n = 2) (Dopamine transporter (h)): 4.9%; % inhibition of control SB (n = 2) (H2 (h)): –2.3%; % inhibition of control SB (n = 2) (5-HT2A (h)): –4.8%; % inhibition of control SB (n = 2) (M1 (h)): –15.6%; % inhibition of control SB (n = 2) (5-HT2C (h)): 2.7%; % inhibition of control SB (n = 2) (5-HT transporter (h)): 22.2%; % inhibition of control SB (n = 2) (KV channel): –5.7%; % inhibition of control SB (n = 2) (M2 (h)): –8.7%; % inhibition of control SB (n = 2) (Y1 (h)): –5.5%; % inhibition of control SB (n = 2) (SKCa channel): 8.6%; % inhibition of control SB (n = 2) (VPAC1 (VIP1) (h)): 7.8%; % inhibition of control SB (n = 2) (D5): –2.0%; % inhibition of control SB (n = 2) (B2 (h)): –1.6%; % inhibition of control SB (n = 2) [1]: 5.4%; % inhibition of control SB (n = 2) (PDGF): –5.6%; % inhibition of control SB (n = 2) (D4.4 (h)): 3.7%; % inhibition of control SB (n = 2) (5-HT7 (h)): 3.9%; % inhibition of control SB (n = 2) (BZD (peripheral)): –12.0%; % inhibition of control SB (n = 2) [2]: 3.0%; % inhibition of control SB (n = 2) (5-HT1A (h)): 3.6%; % inhibition of control SB (n = 2) (5-HT2B (h)): –24.1%; % inhibition of control SB (n = 2) (TNF-α): 4.9%; % inhibition of control SB (n = 2) (EP4 (h)): –8.7%; % inhibition of control SB (n = 2) (MT1 (ML1A) (h)): 7.9%; % inhibition of control SB (n = 2) (M5 (h)): –2.7%; % inhibition of control SB (n = 2) (BB (non-selective)): –9.5%; % inhibition of control SB (n = 2) (EP2 (h)): –13.4%; % inhibition of control SB (n = 2) (ETA (h)): –10.4%; % inhibition of control SB (n = 2) (D1 (h)): –1.0%; % inhibition of control SB (n = 2) (CGRP (h)): 1.7%
